“Also recorded” adds a separate entry of the source. Where two headings read alike, the source gives them in different places. Peptide text beside a SMILES is read from it.
Assays:
[1] = Solubility measurements / aggregation points of AQGV salts
Description: At first attempts were made to mix a solution of the free base and an acid in order to achieve a concentrated DMSO solution of the salt and subsequently dilute this in water in order to determine solubility. […] It was decided to determine the solubility of the salts required by dilution of known amount of salts (not soluble) till a clear solution is obtained.

[2] = test system: patients undergoing on-pump coronary artery bypass grafting (CABG); experiment: EASI phase II study: safety, adverse events; type: in vivo, human
Procedure: During cardiac surgery, 180 patients received (double-blinded, placebo-controlled, randomized) 90 mg/kg/hour EA-230 or placebo. The primary endpoint was safety. Efficacy was assessed by immunomodulation (plasma interleukin (IL)-6 concentrations), renal function (glomerular filtration rate using iohexol and creatinine [GFRiohexol, eGFRMDRD] and the incidence of acute kidney injury [AKI, RIFLE criteria]), cardiovascular effects (fluid balance, vasoactive agents) and general outcome (length-of-stay).
A prospective, randomized, double-blind, placebo-controlled study was performed in which 180 elective patients, undergoing on-pump coronary artery bypass grafting, with or without concomitant valve surgery, were enrolled. Patients were randomized in a 1:1 ratio and received either EA-230, 90 mg/kg/hour, or a placebo. These were infused at the start of the surgical procedure until the end of the use of the cardiopulmonary bypass. The main focus in this first-in-patient study was on safety and tolerability of EA-230. The primary efficacy endpoint was the modulation of the inflammatory response by EA-230 quantified as the change in interleukin-6 plasma concentrations after surgery. A key secondary endpoint was the effect of EA-230 on renal function.
The present study was a single-center, prospective, double-blind, placebo-controlled, randomized, single-dose phase II study. It has an adaptive design to evaluate the safety and immunomodulatory effects of EA-230 in patients undergoing on-pump cardiac surgery for coronary artery bypass grafting (CABG) with or without concomitant valve surgery. 180 eligible patients were included and were randomized to receive either active or placebo treatment in a 1:1 ratio. This was a first-in-patient safety and tolerability study, of which the primary efficacy objective was to assess the immunomodulatory effects of EA-230. The key-secondary efficacy endpoint was the effect of EA-230 on renal function. This study was described in accordance with the Standard Protocol Items: Recommendations for Interventional Trial (SPIRIT) guidelines, and registered at clinicaltrials.gov under number NCT03145220.
(§1) Intravenous infusion of EA-230, 90 mg/kg/hour, or placebo, was initiated at the moment of first surgical incision using an automated infusion pump. Infusion rate was set at 250 ml/hour, and infusion was continued until cessation of the CPB, or after 4 hours of continuous infusion, whichever comes first.
All AEs were judged by the investigators with regard to severity (“mild, moderate, or severe”) according to Common Terminology Criteria for Adverse Events guidelines 4.030 and their perceived relation to the study drug (“definitely, probably, possibly, or unrelated/unlikely to be related”). SAEs or SUSARs include death, life-threatening disease, persistent and/or significant disability and/or incapacity, and hospitalization and/or prolongation of inpatient hospitalization.

[3] = EASI phase II study: pharmacokinetics; type: in vivo; details: human; for Cmax: in vivo, iv, 90 mg/kg, Phase II trial, 90 mg/kg/hour i.v. infusion
Procedure: as §1

[4] = 90 mg/kg/hour i.v. during CABG surgery

**Q.** What does the source list for `CC(C)[C@H](NC(=O)CNC(=O)[C@H](CCC(N)=O)NC(=O)[C@H](C)N)C(=O)O` [AQGV-citrate] (H-AQGV-OH)?
**A.** Behaviour of highly concentrated solution ([1]; 0.9% NaCl, listed as Citric acid): does not crystallize or aggregate but tend to form a highly viscous solution; Behaviour of highly concentrated solution ([1]; 0.9% NaCl, listed as citric acid): remains clear but got very thick/viscous; Solubility in DMSO ([1]; free base mixed with acid in DMSO): did not dissolve in DMSO at all; Total amount dissolved (clear solution) ([1]; in 0.5 mL 0.9% NaCl): 2.75 mmol

**Q.** Which “Adverse events compared with placebo” value [2, 4] does the source give for `CC(C)[C@H](NC(=O)CNC(=O)[C@H](CCC(N)=O)NC(=O)[C@H](C)N)C(=O)O` [EA-230, AQGV] (H-AQGV-OH) here?
**A.** The value was “less (serious) adverse events and less mayor clinical adverse events”.

**Q.** What about the “Patients suffering from (adverse) fluid retention compared with placebo” value [2, 4] of the same molecule?
**A.** Its value is “significantly less patients suffering from fluid retention; also recorded: significant reduction of adverse fluid retention”.

**Q.** What about the “AE of mild intensity: (%) of patients” value ([2]; EASI-study, N = 91) of the same molecule?
**A.** Its value is “(83.5) %”.

**Q.** And the “AE of mild intensity: e (number of events)” value ([2]; EASI-study, N = 91)?
**A.** Its value is 188.

**Q.** And the “AE of mild intensity: n (number of patients experiencing the event)” value ([2]; EASI-study, N = 91)?
**A.** The value was 76.

**Q.** And the “AE of moderate intensity: (%) of patients” value ([2]; EASI-study, N = 91)?
**A.** The value was “(24.2) %”.

**Q.** What about the “AE of moderate intensity: e (number of events)” value ([2]; EASI-study, N = 91) of the same molecule?
**A.** The value was 23.

**Q.** What about the “AE of moderate intensity: n (number of patients experiencing the event)” value ([2]; EASI-study, N = 91) of the same molecule?
**A.** Its value is 22.

**Q.** What about the “AE of severe intensity: (%) of patients” value ([2]; EASI-study, N = 91) of the same molecule?
**A.** Its value is “(5.5) %”.

**Q.** What about the “AE of severe intensity: e (number of events)” value ([2]; EASI-study, N = 91) of the same molecule?
**A.** The value was 6.

**Q.** And the “AE of severe intensity: n (number of patients experiencing the event)” value ([2]; EASI-study, N = 91)?
**A.** The value was 5.

**Q.** And the “Anemia: (%) of patients” value ([2]; EASI-study, N = 91)?
**A.** The value was “(5.5) %”.

**Q.** And the “Anemia: e (number of events)” value ([2]; EASI-study, N = 91)?
**A.** The value was 5.

**Q.** And the “Anemia: n (number of patients experiencing the event)” value ([2]; EASI-study, N = 91)?
**A.** The value was 5.

**Q.** What about the “Any AE: (%) of patients” value ([2]; EASI-study, N = 91) of the same molecule?
**A.** The value was “(85.7) %”.

**Q.** What about the “Any AE: n (number of patients experiencing the event)” value ([2]; EASI-study, N = 91) of the same molecule?
**A.** Its value is 78.

**Q.** What about the “Any SAE: (%) of patients” value ([2]; EASI-study, N = 91) of the same molecule?
**A.** The value was “(13.2) %”.

**Q.** What about the “Any SAE: e (number of events)” value ([2]; EASI-study, N = 91) of the same molecule?
**A.** Its value is 23.

**Q.** What about the “Any SAE: n (number of patients experiencing the event)” value ([2]; EASI-study, N = 91) of the same molecule?
**A.** Its value is 12.

**Q.** And the “Any SUSAR: (%) of patients” value ([2]; EASI-study, N = 91)?
**A.** Its value is “(0) %”.

**Q.** What about the “Any SUSAR: e (number of events)” value ([2]; EASI-study, N = 91) of the same molecule?
**A.** The value was 0.

**Q.** And the “Any SUSAR: n (number of patients experiencing the event)” value ([2]; EASI-study, N = 91)?
**A.** The value was 0.

**Q.** What about the “Blood and lymphatic system disorders, Overall: (%) of patients” value ([2]; EASI-study, N = 91) of the same molecule?
**A.** The value was “(5.5) %”.

**Q.** What about the “Blood and lymphatic system disorders, Overall: e (number of events)” value ([2]; EASI-study, N = 91) of the same molecule?
**A.** Its value is 6.

**Q.** What about the “Blood and lymphatic system disorders, Overall: n (number of patients experiencing the event)” value ([2]; EASI-study, N = 91) of the same molecule?
**A.** The value was 5.

**Q.** And the “Delirium: (%) of patients” value ([2]; EASI-study, N = 91)?
**A.** The value was “(5.5) %”.

**Q.** What about the “Delirium: e (number of events)” value ([2]; EASI-study, N = 91) of the same molecule?
**A.** Its value is 5.

**Q.** And the “Delirium: n (number of patients experiencing the event)” value ([2]; EASI-study, N = 91)?
**A.** The value was 5.

**Q.** And the “Fluid retention: (%) of patients” value ([2]; EASI-study, N = 91)?
**A.** The value was “(2.2) %”.

**Q.** And the “Fluid retention: e (number of events)” value ([2]; EASI-study, N = 91)?
**A.** The value was 2.

**Q.** What about the “Gastrointestinal disorders, Overall: (%) of patients” value ([2]; EASI-study, N = 91) of the same molecule?
**A.** Its value is “(23.1) %”.

**Q.** And the “Gastrointestinal disorders, Overall: e (number of events)” value ([2]; EASI-study, N = 91)?
**A.** Its value is 27.

**Q.** What about the “Gastrointestinal disorders, Overall: n (number of patients experiencing the event)” value ([2]; EASI-study, N = 91) of the same molecule?
**A.** Its value is 21.

**Q.** What about the “Hemorrhagic diathesis: (%) of patients” value ([2]; EASI-study, N = 91) of the same molecule?
**A.** Its value is “(1.1) %”.

**Q.** What about the “Hemorrhagic diathesis: e (number of events)” value ([2]; EASI-study, N = 91) of the same molecule?
**A.** Its value is 1.

**Q.** What about the “Hemorrhagic diathesis: n (number of patients experiencing the event)” value ([2]; EASI-study, N = 91) of the same molecule?
**A.** The value was 1.

**Q.** And the “Infections and infestations, Overall: (%) of patients” value ([2]; EASI-study, N = 91)?
**A.** Its value is “(14.3) %”.

**Q.** What about the “Infections and infestations, Overall: e (number of events)” value ([2]; EASI-study, N = 91) of the same molecule?
**A.** The value was 15.

**Q.** And the “Infections and infestations, Overall: n (number of patients experiencing the event)” value ([2]; EASI-study, N = 91)?
**A.** Its value is 13.

**Q.** And the “Metabolism and nutrition disorders, Overall: (%) of patients” value ([2]; EASI-study, N = 91)?
**A.** Its value is “(11) %”.

**Q.** And the “Metabolism and nutrition disorders, Overall: e (number of events)” value ([2]; EASI-study, N = 91)?
**A.** Its value is 10.

**Q.** What about the “Metabolism and nutrition disorders, Overall: n (number of patients experiencing the event)” value ([2]; EASI-study, N = 91) of the same molecule?
**A.** Its value is 10.

**Q.** What about the “Nausea: (%) of patients” value ([2]; EASI-study, N = 91) of the same molecule?
**A.** The value was “(16.5) %”.

**Q.** What about the “Nausea: e (number of events)” value ([2]; EASI-study, N = 91) of the same molecule?
**A.** Its value is 15.

**Q.** What about the “Nausea: n (number of patients experiencing the event)” value ([2]; EASI-study, N = 91) of the same molecule?
**A.** Its value is 15.

**Q.** What about the “Psychiatric disorders, Overall: (%) of patients” value ([2]; EASI-study, N = 91) of the same molecule?
**A.** The value was “(9.9) %”.

**Q.** What about the “Psychiatric disorders, Overall: e (number of events)” value ([2]; EASI-study, N = 91) of the same molecule?
**A.** The value was 9.

**Q.** And the “Psychiatric disorders, Overall: n (number of patients experiencing the event)” value ([2]; EASI-study, N = 91)?
**A.** The value was 9.

**Q.** And the “Renal and urinary disorders, Overall: (%) of patients” value ([2]; EASI-study, N = 91)?
**A.** Its value is “(4.4) %”.

**Q.** And the “Renal and urinary disorders, Overall: e (number of events)” value ([2]; EASI-study, N = 91)?
**A.** Its value is 4.

**Q.** What about the “Renal and urinary disorders, Overall: n (number of patients experiencing the event)” value ([2]; EASI-study, N = 91) of the same molecule?
**A.** Its value is 4.

**Q.** What about the Safety and tolerability ([2]; continuous infusion 90 mg/kg/hour up to 4 hours, elective CABG surgery) of the same molecule?
**A.** The Safety and tolerability was “safe and No safety concerns emerged and well tolerated and showed an excellent safety profile”.

**Q.** What about the “Time to clearance from the circulation when infusion is terminated” value [3] of the same molecule?
**A.** The value was 5 to 10 min.

**Q.** What about the Cmax ([3]; read-out: Arterial Cmax, range) of the same molecule?
**A.** Its Cmax is 12500 to 57500 ng/mL.

**Q.** What about the Cmax ([3]; read-out: Mean arterial Cmax) of the same molecule?
**A.** Its Cmax is 30500 ng/mL.

**Q.** And the Cmax ([3]; read-out: Mean venous Cmax)?
**A.** Its Cmax is 68400 ng/mL.

**Q.** And the Cmax ([3]; read-out: Venous Cmax, range)?
**A.** Its Cmax is 19600 to 113000 ng/mL.

**Q.** For `Nc1ncnc2c1ncn2[C@@H]1O[C@H](COP(=O)(O)O)[C@@H](O)[C@H]1O` [adenosine-monophosphate], which “Clear solution on adding 0.9% NaCl” value [1] is on record?
**A.** The value was “no clear solution could be obtained”.

**Q.** For `O=C(O)/C=C\C(=O)O` [maleic acid], which “Solubility compared to AQGV-Ac” value ([1]; 0.9% NaCl) is on record?
**A.** Its value is “lower solubility”.

**Q.** Which “Clear solution on adding 0.9% NaCl” value ([1]; 1 or 0.5 mmol salt, small amounts of 0.9% NaCl added) does the source give for adenosine here?
**A.** The value was “no clear solution could be obtained”.
